From ChEMBL document CHEMBL5584323, “Peptide-Mediated Small Molecule Lysosome-Targeting Chimeras for Targeted Degradation of Membrane and Intracellular Proteins” (J Med Chem, 2024)
The source made the active and inactive calls. The rule behind the calls is not given here. Starred links: 1 amine or outer side, 2 acyl side, 3 side chain; linkers in the order of their positions; H or OH if unused. Non-standard residues stand in square brackets, D forms with d. Residues, ends and D or L forms follow the SMILES beside them. *: point of attachment. X5 = Nc1ncnc2c1c(-c1ccc(Oc3ccccc3)cc1)nn2[C@@H]1CCCN(C(=O)/C=C/CN2CCN(CCOCCOCCC(=O)*)CC2)C1; X4 = COc1nc(OCc2cccc(-c3ccccc3)c2C)ccc1CNCCNC(=O)CCCc1cn(CC(=O)*)nn1; X1 = Cc1ccc(-n2nc3c(=O)n(CCCC(=O)*)nc(C)c3c2C)cc1; X2 = O=S(=O)(c1ccc(NC(=S)NCc2cccnc2)cc1)*; X3 = O=C(CCCCCCCN1CCN([*:1])CC1)[*:2]; Aoc = NCCCCCCCC(=O)O

Assays:
MIA PaCa-2 [1] = assay: Induction of apoptosis in human MIA PaCa-2 cells assessed as necrotic cells at 5 uM incubated for 48 hrs by Annexin V-FITC/PI staining based flow cytometry (reference value: 0.55 %); assay type: functional
MIA PaCa-2 [2] = assay: Induction of apoptosis in human MIA PaCa-2 cells assessed as late apoptotic cells at 10 uM incubated for 48 hrs by Annexin V-FITC/PI staining based flow cytometry (reference value: 2.90 %); assay type: functional
MIA PaCa-2 [3] = assay: Induction of apoptosis in human MIA PaCa-2 cells assessed as necrotic cells at 20 uM incubated for 48 hrs by Annexin V-FITC/PI staining based flow cytometry (reference value: 0.55 %); assay type: functional
MIA PaCa-2 [4] = assay: Induction of apoptosis in human MIA PaCa-2 cells assessed as viable cells at 10 uM incubated for 48 hrs by Annexin V-FITC/PI staining based flow cytometry (reference value: 92.1 %); assay type: functional; settings: read-out: Activity
MIA PaCa-2 [5] = assay: Induction of apoptosis in human MIA PaCa-2 cells assessed as viable cells at 5 uM incubated for 48 hrs by Annexin V-FITC/PI staining based flow cytometry (reference value: 92.1 %); assay type: functional; settings: read-out: Activity
MIA PaCa-2 [6] = assay: Induction of apoptosis in human MIA PaCa-2 cells assessed as late apoptotic cells at 20 uM incubated for 48 hrs by Annexin V-FITC/PI staining based flow cytometry (reference value: 2.90 %); assay type: functional
[7] = target: T1, Retinal rod rhodopsin-sensitive cGMP 3',5'-cyclic phosphodiesterase subunit delta (Homo sapiens, UniProt O43924); assay: Peptide-mediated small molecule lysosome-targeting chimeric activity based PDE-delta degradation in human MIA PaCa-2 cells assessed as reduction in Erk phosphorylation at Thr202/Tyr204 at 0.1 to 5 uM incubated for 48 hrs by Western blot analysis; assay type: cell-based; settings: dose 0.1-5 µM
T1 sequence (O43924 whole entry): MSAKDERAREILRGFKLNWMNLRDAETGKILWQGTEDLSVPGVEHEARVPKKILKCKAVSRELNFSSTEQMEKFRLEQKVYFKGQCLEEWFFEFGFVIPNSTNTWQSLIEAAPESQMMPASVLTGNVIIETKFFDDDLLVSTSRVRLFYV

MIA PaCa-2 [8] = assay: Effect on total Akt in human MIA PaCa-2 cells at 0.1 to 5 uM incubated for 48 hrs by Western blot analysis; assay type: functional, cell-based; settings: dose 0.1-5 µM
MIA PaCa-2 [9] = assay: Induction of apoptosis in human MIA PaCa-2 cells assessed as late apoptotic cells at 5 uM incubated for 48 hrs by Annexin V-FITC/PI staining based flow cytometry (reference value: 2.90 %); assay type: functional
[10] = target: T1, Retinal rod rhodopsin-sensitive cGMP 3',5'-cyclic phosphodiesterase subunit delta; assay: Peptide-mediated small molecule lysosome-targeting chimeric activity based PDE-delta degradation in human MIA PaCa-2 cells at 5 uM incubated for 48 hrs by Western blot analysis relative to control; assay type: cell-based
MIA PaCa-2 [11] = assay: Induction of apoptosis in human MIA PaCa-2 cells assessed as viable cells at 20 uM incubated for 48 hrs by Annexin V-FITC/PI staining based flow cytometry (reference value: 92.1 %); assay type: functional; settings: read-out: Activity
[12] = target: T1, Retinal rod rhodopsin-sensitive cGMP 3',5'-cyclic phosphodiesterase subunit delta; assay: Peptide-mediated small molecule lysosome-targeting chimeric activity based PDE-delta degradation in human MIA PaCa-2 cells assessed as increase in lysosome-related organelles at 1 uM incubated for 48 hrs by TEM analysis; assay type: cell-based
MIA PaCa-2 [13] = assay: Induction of apoptosis in human MIA PaCa-2 cells assessed as early apoptotic cells at 10 uM incubated for 48 hrs by Annexin V-FITC/PI staining based flow cytometry (reference value: 4.45 %); assay type: functional
MIA PaCa-2 [14] = assay: Effect on total Erk in human MIA PaCa-2 cells at 0.1 to 5 uM incubated for 48 hrs by Western blot analysis; assay type: functional, cell-based; settings: dose 0.1-5 µM
MIA PaCa-2 [15] = assay: Induction of apoptosis in human MIA PaCa-2 cells assessed as early apoptotic cells at 20 uM incubated for 48 hrs by Annexin V-FITC/PI staining based flow cytometry (reference value: 4.45 %); assay type: functional
MIA PaCa-2 [16] = assay: Antiproliferative activity against human MIA PaCa-2 cells incubated for 72 hrs by CKK8 assay; assay type: functional, cell-based; settings: MIA PaCa-2, 72 h
[17] = Metabolic stability in rat liver microsomes assessed as half life; assay type: ADME, Microsome
[18] = Stability of compound in PBS buffer incubated for 48 hrs by HPLC analysis; assay type: physicochemical
[19] = target: T1, Retinal rod rhodopsin-sensitive cGMP 3',5'-cyclic phosphodiesterase subunit delta; assay: Peptide-mediated small molecule lysosome-targeting chimeric activity based PDE-delta degradation in human MIA PaCa-2 cells incubated for 48 hrs by Western blot analysis; assay type: cell-based
[20] = target: T1, Retinal rod rhodopsin-sensitive cGMP 3',5'-cyclic phosphodiesterase subunit delta; assay: Peptide-mediated small molecule lysosome-targeting chimeric activity based PDE-delta degradation in Baf-A1-treated human MIA PaCa-2 cells at 0.5 to 1 uM incubated for 48 hrs by Western blot analysis; assay type: cell-based; settings: dose 0.5-1 µM
[21] = target: T1, Retinal rod rhodopsin-sensitive cGMP 3',5'-cyclic phosphodiesterase subunit delta; assay: Peptide-mediated small molecule lysosome-targeting chimeric activity based PDE-delta degradation in human MIA PaCa-2 cells assessed as reduction in Akt phosphorylation at S473 at 2 uM incubated for 48 hrs by Western blot analysis; assay type: cell-based
MIA PaCa-2 [22] = assay: Induction of apoptosis in human MIA PaCa-2 cells assessed as early apoptotic cells at 5 uM incubated for 48 hrs by Annexin V-FITC/PI staining based flow cytometry (reference value: 4.45 %); assay type: functional
[23] = target: T1, Retinal rod rhodopsin-sensitive cGMP 3',5'-cyclic phosphodiesterase subunit delta; assay: Peptide-mediated small molecule lysosome-targeting chimeric activity based PDE-delta degradation in human MIA PaCa-2 cells at 0.1 uM incubated for 48 hrs by Western blot analysis; assay type: cell-based
MIA PaCa-2 [24] = assay: Induction of apoptosis in human MIA PaCa-2 cells assessed as necrotic cells at 10 uM incubated for 48 hrs by Annexin V-FITC/PI staining based flow cytometry (reference value: 0.55 %); assay type: functional
[25] = target: T2, Nicotinamide phosphoribosyltransferase (Homo sapiens, UniProt P43490); assay: Peptide-mediated small molecule lysosome-targeting chimeric activity based NAMPT degradation in human MOLT-4 cells incubated for 48 hrs by Western blot analysis; assay type: cell-based
[26] = target: T2, Nicotinamide phosphoribosyltransferase; assay: Peptide-mediated small molecule lysosome-targeting chimeric activity based NAMPT degradation in human A2780 cells incubated for 48 hrs by Western blot analysis; assay type: cell-based
[27] = target: T2, Nicotinamide phosphoribosyltransferase; assay: Peptide-mediated small molecule lysosome-targeting chimeric activity based NAMPT degradation in human MOLT-4 cells at 1 to 40 uM incubated for 48 hrs by Western blot analysis relative to control; assay type: cell-based; settings: dose 1-40 µM
Target sequence in this assay (P43490 whole entry, looked up): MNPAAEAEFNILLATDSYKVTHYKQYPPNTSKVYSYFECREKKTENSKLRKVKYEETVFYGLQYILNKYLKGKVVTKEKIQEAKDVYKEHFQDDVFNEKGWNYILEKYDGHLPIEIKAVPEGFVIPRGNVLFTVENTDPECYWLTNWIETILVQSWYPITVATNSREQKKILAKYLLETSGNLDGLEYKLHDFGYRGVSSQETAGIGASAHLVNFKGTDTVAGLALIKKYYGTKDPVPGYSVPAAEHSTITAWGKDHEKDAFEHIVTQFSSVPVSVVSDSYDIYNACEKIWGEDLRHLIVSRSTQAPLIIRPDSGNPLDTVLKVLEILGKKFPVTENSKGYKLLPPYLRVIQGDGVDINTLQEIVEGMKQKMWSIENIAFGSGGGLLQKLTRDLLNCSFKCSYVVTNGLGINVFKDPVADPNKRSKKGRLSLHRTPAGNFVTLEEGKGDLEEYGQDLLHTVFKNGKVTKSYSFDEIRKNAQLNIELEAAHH

[28] = target: T2, Nicotinamide phosphoribosyltransferase; assay: Peptide-mediated small molecule lysosome-targeting chimeric activity based NAMPT degradation in human A2780 cells at 1 to 40 uM incubated for 48 hrs by Western blot analysis relative to control; assay type: cell-based; settings: dose 1-40 µM
Target sequence in this assay (P43490 whole entry, looked up): as above

[29] = target: Tyrosine-protein kinase BTK (Homo sapiens) (UniProt Q06187); assay: Peptide-mediated small molecule lysosome-targeting chimeric activity based BTK degradation in human K562 cells at 10 uM incubated for 48 hrs by Western blot analysis relative to control; assay type: cell-based
Tyrosine-protein kinase BTK (Homo sapiens), sequence (Q06187 whole entry): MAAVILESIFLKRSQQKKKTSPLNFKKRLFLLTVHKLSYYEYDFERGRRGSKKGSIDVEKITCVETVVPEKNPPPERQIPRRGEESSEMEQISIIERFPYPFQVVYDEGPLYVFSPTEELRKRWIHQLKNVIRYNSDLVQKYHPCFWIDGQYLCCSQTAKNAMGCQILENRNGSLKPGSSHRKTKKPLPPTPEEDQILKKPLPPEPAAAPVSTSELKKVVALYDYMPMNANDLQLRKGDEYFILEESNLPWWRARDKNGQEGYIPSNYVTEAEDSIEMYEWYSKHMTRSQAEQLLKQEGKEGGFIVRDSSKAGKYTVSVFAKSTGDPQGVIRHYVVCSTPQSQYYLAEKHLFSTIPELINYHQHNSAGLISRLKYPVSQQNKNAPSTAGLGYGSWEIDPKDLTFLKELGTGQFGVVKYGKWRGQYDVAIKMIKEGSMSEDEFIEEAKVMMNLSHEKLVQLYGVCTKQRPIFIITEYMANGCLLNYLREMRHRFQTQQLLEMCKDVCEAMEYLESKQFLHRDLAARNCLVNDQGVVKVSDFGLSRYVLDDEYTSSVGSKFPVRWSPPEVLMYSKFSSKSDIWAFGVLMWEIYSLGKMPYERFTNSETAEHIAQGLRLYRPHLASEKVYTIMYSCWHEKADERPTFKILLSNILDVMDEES

[30] = target: T3, Programmed cell death 1 ligand 1 (Homo sapiens, UniProt Q9NZQ7); assay: Peptide-mediated small molecule lysosome-targeting chimeric activity based PD-L1 degradation in human A549 cells at 0.1 to 5 uM incubated for 48 hrs by Western blot analysis relative to control; assay type: cell-based; settings: dose 0.1-5 µM
T3 sequence (Q9NZQ7 whole entry): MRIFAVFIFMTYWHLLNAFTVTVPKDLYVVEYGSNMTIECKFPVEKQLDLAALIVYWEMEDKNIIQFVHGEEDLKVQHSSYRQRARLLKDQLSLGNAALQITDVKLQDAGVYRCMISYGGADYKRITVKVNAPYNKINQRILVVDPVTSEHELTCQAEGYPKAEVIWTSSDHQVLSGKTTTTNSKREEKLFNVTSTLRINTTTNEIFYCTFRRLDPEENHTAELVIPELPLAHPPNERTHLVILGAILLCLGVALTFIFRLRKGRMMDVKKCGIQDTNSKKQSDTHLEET

[31] = target: T3, Programmed cell death 1 ligand 1; assay: Peptide-mediated small molecule lysosome-targeting chimeric activity based PD-L1 degradation in human A549 cells incubated for 48 hrs by Western blot analysis; assay type: cell-based
[32] = target: T3, Programmed cell death 1 ligand 1; assay: Peptide-mediated small molecule lysosome-targeting chimeric activity based PD-L1 degradation in Baf-A1-treated human A549 cells upto 5 uM incubated for 48 hrs by Western blot analysis; assay type: cell-based

Compound `Cc1ccc(-n2nc3c(=O)n(CCCC(=O)NCCCCCCCC(=O)NCC(=O)NCC(=O)NCC(=O)N[C@@H](CCCNC(=N)N)C(=O)N[C@@H](CCCNC(=N)N)C(=O)N[C@@H](CCCNC(=N)N)C(=O)N[C@@H](CCCNC(=N)N)C(=O)N[C@@H](CCCNC(=N)N)C(=O)N[C@@H](CCCNC(=N)N)C(=O)N[C@@H](CCCNC(=N)N)C(=O)N[C@@H](CCCNC(=N)N)C(=O)N[C@@H](CCCNC(=N)N)C(=O)N[C@@H](CC(N)=O)C(=O)N4CCC[C@H]4C(=O)NCC(=O)N[C@@H](Cc4ccc(O)cc4)C(N)=O)nc(C)c3c2C)cc1` ({X1-Aoc}-GGGRRRRRRRRRNPGY-NH2) has an Activity (MIA PaCa-2 [1]) of 0.95%, an Activity (MIA PaCa-2 [2]) of 13.3% and an Activity (MIA PaCa-2 [3]) of 3.9%. The viability at 10 µM (MIA PaCa-2 [4]) was 73.3%, the viability at 5 µM (MIA PaCa-2 [5]) was 88.7% and the Activity (MIA PaCa-2 [6]) was 19.7%. For the same compound, the Activity [7] was “Active”, the Activity (MIA PaCa-2 [8]) was “inactive” and the Activity (MIA PaCa-2 [9]) was 3.48%. The Emax [10] was 89%, the viability at 20 µM (MIA PaCa-2 [11]) was 59.7% and the Activity [12] was “Active”. For the same compound, the Activity (MIA PaCa-2 [13]) was 10.7%, the Activity (MIA PaCa-2 [14]) was “inactive” and the Activity (MIA PaCa-2 [15]) was 16.8%. For the same compound, the IC50 (MIA PaCa-2 [16]) was 3600 nM, the half-life [17] was 33.5 min and the Stability [18] was “Stable”. The DC50 [19] was 230 nM, the Activity ([19]; dose 0.1-5 µM) was “Dose-Dependent Effect” and the Activity [20] was “inactive”. For the same compound, the Activity [21] was “Active”, the Activity (MIA PaCa-2 [22]) was 6.85% and the Activity [23] was “Active”. For the same compound, the Activity (MIA PaCa-2 [24]) was 2.05%.
With `N=C(N)NCCC[C@H](NC(=O)CNC(=O)CNC(=O)CNC(=O)CCCCCCCN1CCN(S(=O)(=O)c2ccc(NC(=S)NCc3cccnc3)cc2)CC1)C(=O)N[C@@H](CCCNC(=N)N)C(=O)N[C@@H](CCCNC(=N)N)C(=O)N[C@@H](CCCNC(=N)N)C(=O)N[C@@H](CCCNC(=N)N)C(=O)N[C@@H](CCCNC(=N)N)C(=O)N[C@@H](CCCNC(=N)N)C(=O)N[C@@H](CCCNC(=N)N)C(=O)N[C@@H](CCCNC(=N)N)C(=O)N[C@@H](CC(N)=O)C(=O)N1CCC[C@H]1C(=O)NCC(=O)N[C@@H](Cc1ccc(O)cc1)C(N)=O` (X2-[X3]GGGRRRRRRRRRNPGY-NH2) the DC50 [25] was 7000 nM, the Activity ([25]; dose 1-40 µM) was “Dose-Dependent Effect” and the DC50 [26] was 890 nM. For the same compound, the Activity ([26]; dose 1-40 µM) was “Dose-Dependent Effect”, the Emax [27] was 90% and the Emax [28] was 93%.
Compound `N=C(N)NCCC[C@H](NC(=O)CNC(=O)CNC(=O)CNC(=O)CCOCCOCCN1CCN(C/C=C/C(=O)N2CCC[C@@H](n3nc(-c4ccc(Oc5ccccc5)cc4)c4c(N)ncnc43)C2)CC1)C(=O)N[C@@H](CCCNC(=N)N)C(=O)N[C@@H](CCCNC(=N)N)C(=O)N[C@@H](CCCNC(=N)N)C(=O)N[C@@H](CCCNC(=N)N)C(=O)N[C@@H](CCCNC(=N)N)C(=O)N[C@@H](CCCNC(=N)N)C(=O)N[C@@H](CCCNC(=N)N)C(=O)N[C@@H](CCCNC(=N)N)C(=O)N[C@@H](CC(N)=O)C(=O)N1CCC[C@H]1C(=O)NCC(=O)N[C@@H](Cc1ccc(O)cc1)C(N)=O` (X5-GGGRRRRRRRRRNPGY-NH2) has an Emax [29] of 63%.
Compound `Cc1ccc(-n2nc3c(=O)n(CCCC(=O)NCCCCCNc4cccc5c4C(=O)N(C4CCC(=O)NC4=O)C5=O)nc(C)c3c2C)cc1` (stereo unspecified) has an IC50 (MIA PaCa-2 [16]) of 9300 nM.
With `COc1nc(OCc2cccc(-c3ccccc3)c2C)ccc1CNCCNC(=O)CCCc1cn(CC(=O)NCC(=O)NCC(=O)N[C@@H](CCCNC(=N)N)C(=O)N[C@@H](CCCNC(=N)N)C(=O)N[C@@H](CCCNC(=N)N)C(=O)N[C@@H](CCCNC(=N)N)C(=O)N[C@@H](CCCNC(=N)N)C(=O)N[C@@H](CCCNC(=N)N)C(=O)N[C@@H](CCCNC(=N)N)C(=O)N[C@@H](CCCNC(=N)N)C(=O)N[C@@H](CCCNC(=N)N)C(=O)N[C@@H](CC(N)=O)C(=O)N2CCC[C@H]2C(=O)NCC(=O)N[C@@H](Cc2ccc(O)cc2)C(N)=O)nn1` (X4-GGRRRRRRRRRNPGY-NH2) the Emax [30] was 92%, the DC50 [31] was 200 nM and the Activity [32] was “inactive”.
